Results published in patent publication US20160263108A1, “NRF2 INHIBITORS AND COMPOSITIONS FOR TREATING MYCOBACTERIAL INFECTIONS” (THE HAMNER INSTITUTES, priority 2013, published 2016).
Where a name gives a salt, the structure may show the parent alone. Read-outs that look alike come from different tables or passages of the source.

What was measured:
Nrf2-ARE activity = assay type: cell-based
[1] = test system: Nrf2-ARE activity in HepG2 cells; assay type: cell-based, human; details: for ARE-luciferase activity with Nrf2 activator: HepG2 cells treated with both drug and iAs3+ (FIG. 2A, FIG. 3); for inhibitory effect on ARE-luciferase activity: HepG2 cells, basal conditions (FIG. 2A, FIG. 3)
[2] = test system: Nrf2-ARE-dependent gene expression (HO1, GCLM, SRX); details: THP-1 cells, concentration-dependent
[3] = test system: Nrf2-ARE activity in 3T3-L1 preadipocytes; assay type: cell-based, mouse
[4] = test system: Nrf2-ARE activity in HaCaT cells; assay type: cell-based, human
[5] = test system: Nrf2-ARE-dependent gene expression (Ho1); assay: RT-qPCR of ARE-dependent gene in HepG2 cells; details: concentration-dependent, basal (FIG. 2B)
[6] = test system: Nrf2-ARE-dependent gene expression (Gclc, Nqo1, Ho1); assay: RT-qPCR of ARE-dependent genes in 3T3-L1 preadipocytes; details: 10 mM
[7] = iAs3+-treated or tBHQ-treated conditions

Structure (SMILES)	inhibitory effect on ARE-luciferase activity (Nrf2-ARE activity; basal conditions)	inhibitory effect on ARE-luciferase activity (Nrf2-ARE activity; [7])	further results
NNC(=O)c1ccco1 [2-Furoic hydrazide]	concentration-dependent inhibitory effect	concentration-dependent inhibitory effect	–
Nc1cnccn1 [Aminopyrazine]	concentration-dependent inhibitory effect	concentration-dependent inhibitory effect	–
CC[C@@H](CO)NCCN[C@@H](CC)CO [Ethambutol dihydrochloride]	concentration-dependent inhibitory effect	–	–
CCc1cc(C(N)=S)ccn1 [Ethionamide]	–	–	ARE-luciferase activity with Nrf2 activator [1]: substantial ARE-luciferase activity; inhibitory effect on ARE-luciferase activity [1]: concentration-dependent inhibitory effect; gene expression (mRNA) of Heme oxygenase (HO1) ([2]; basal (FIG. 4A)): suppresses; gene expression (mRNA) of GCLM ([2]; basal (FIG. 4B)): suppresses; gene expression (mRNA) of sulfiredoxin (SRX) ([2]; basal (FIG. 4C)): suppresses
NNC(=O)c1ccncc1 [Isoniazid]	–	–	ARE-luciferase activity with Nrf2 activator ([3]; 3T3-L1 cells treated with both drug and iAs3+ (FIG. 1A)): substantial ARE-luciferase activity; inhibitory effect on ARE-luciferase activity ([3]; 3T3-L1 cells, basal conditions, 1 mM to 50 mM (FIG. 1A)): concentration-dependent inhibitory effect; ARE-luciferase activity with Nrf2 activator [1]: substantial ARE-luciferase activity; inhibitory effect on ARE-luciferase activity [1]: concentration-dependent inhibitory effect; Nrf2-ARE-inhibitory effect (ARE-luciferase) [4]: Nrf2-ARE-inhibitory effect of isoniazid was also observed; gene expression of Heme oxygenase (Ho1) [5]: suppresses; gene expression of glutamate-cysteine ligase catalytic subunit (Gclc) ([6]; basal (FIG. 1B)): suppresses; gene expression of NAD(P)H dehydrogenase [quinone] 1 (Ngo1) ([6]; basal (FIG. 1C)): suppresses; gene expression of Heme oxygenase (Ho1) ([6]; basal (FIG. 1D)): suppresses
NNC(=O)Cc1ccccc1 [Phenylacetic hydrazide]	concentration-dependent inhibitory effect	concentration-dependent inhibitory effect	–
NNc1ccccc1 [Phenylhydrazine]	concentration-dependent inhibitory effect	concentration-dependent inhibitory effect	–
NC(=O)c1cnccn1 [Pyrazinecarboxamide]	concentration-dependent inhibitory effect	concentration-dependent inhibitory effect	–
C[C@@H]1CN(c2c(F)c(N)c3c(=O)c(C(=O)O)cn(C4CC4)c3c2F)C[C@H](C)N1 [Sparfloxacin]	concentration-dependent inhibitory effect	–	–
Cc1ccc(C(=O)NN)cc1 [p-Toluic hydrazide]	concentration-dependent inhibitory effect	concentration-dependent inhibitory effect	–
